Our source for the Activity and IC50 values is ChEMBL document CHEMBL4808176, “Optimization of Truncated Glucagon Peptides to Achieve Selective, High Potency, Full Antagonists” (J Med Chem, 2021).

In test [1] the target is Glucagon receptor (Rattus norvegicus) (UniProt P30082). The experiment in a line: Displacement of 125I-glucagon from GCGR of rat liver membrane. The class given is cell membranes.
For test [2], the target named is T1, Glucagon receptor (Homo sapiens, UniProt P47871). The experiment in a line: Antagonist activity at human GCGR expressed in HEK293 cells assessed as inhibition of glucogon-induced cAMP production by schild plot analysis. The class given is functional, cell-based. The note with it: dose 0.1-1.6 µM.
Test [3] has as its target T1, Glucagon receptor. The experiment in a line: Partial antagonist activity at human GCGR expressed in HEK293 cells assessed as inhibition of glucogon-induced cAMP production. The note with it: filed as antagonist. The class given is functional, cell-based.
The target of test [4] is T1, Glucagon receptor. The experiment in a line: Antagonist activity at human GCGR expressed in HEK293 cells assessed as inhibition of glucogon-induced cAMP production. It counts as functional, cell-based.
The target in test [5] is T1, Glucagon receptor. The experiment in a line: Displacement of 125I-glucagon from human GCGR expressed in HEK293 cells membranes incubated for 6 hrs by liquid scintillation counting method. The class given is cell membranes, Membrane.

Activity calls are given as the source filed them. No cut-off for these calls is given here. Peptide text beside a SMILES is read from it.

T1 sequence (P47871 whole entry): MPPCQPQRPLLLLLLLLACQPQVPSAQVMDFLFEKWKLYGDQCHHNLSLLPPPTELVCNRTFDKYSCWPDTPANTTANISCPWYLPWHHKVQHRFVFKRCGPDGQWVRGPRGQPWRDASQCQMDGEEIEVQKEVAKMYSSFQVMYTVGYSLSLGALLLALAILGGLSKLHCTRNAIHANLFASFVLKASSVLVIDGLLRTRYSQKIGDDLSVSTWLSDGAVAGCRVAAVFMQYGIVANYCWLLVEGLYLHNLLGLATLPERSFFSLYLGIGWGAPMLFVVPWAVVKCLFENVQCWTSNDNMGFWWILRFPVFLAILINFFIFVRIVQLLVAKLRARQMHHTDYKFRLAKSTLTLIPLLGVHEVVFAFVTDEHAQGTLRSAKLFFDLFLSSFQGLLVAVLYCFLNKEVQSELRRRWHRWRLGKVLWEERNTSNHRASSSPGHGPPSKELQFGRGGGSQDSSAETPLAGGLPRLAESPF
Glucagon receptor (Rattus norvegicus), sequence (P30082 whole entry): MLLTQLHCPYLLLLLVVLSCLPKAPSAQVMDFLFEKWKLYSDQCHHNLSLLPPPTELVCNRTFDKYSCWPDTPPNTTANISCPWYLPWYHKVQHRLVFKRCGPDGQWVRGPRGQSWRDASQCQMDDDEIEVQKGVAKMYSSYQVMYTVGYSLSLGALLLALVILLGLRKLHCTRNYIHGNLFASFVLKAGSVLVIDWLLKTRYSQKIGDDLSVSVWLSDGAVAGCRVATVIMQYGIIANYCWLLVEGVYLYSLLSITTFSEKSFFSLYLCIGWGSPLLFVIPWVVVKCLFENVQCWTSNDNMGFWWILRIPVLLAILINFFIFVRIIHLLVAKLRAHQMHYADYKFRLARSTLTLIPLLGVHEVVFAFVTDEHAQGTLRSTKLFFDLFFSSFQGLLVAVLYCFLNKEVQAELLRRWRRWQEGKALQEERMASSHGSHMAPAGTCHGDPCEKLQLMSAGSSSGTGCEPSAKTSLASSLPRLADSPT

With `CSCC[C@H](NC(=O)[C@H](CC(C)C)NC(=O)[C@H](Cc1c[nH]c2ccccc12)NC(=O)[C@H](CCC(N)=O)NC(=O)[C@@H](NC(=O)[C@H](Cc1ccccc1)NC(=O)[C@H](CC(=O)O)NC(=O)[C@H](CCC(N)=O)NC(=O)[C@H](C)NC(=O)[C@H](CCCN=C(N)N)NC(=O)[C@H](CCCN=C(N)N)NC(=O)[C@H](CO)NC(=O)[C@H](CC(=O)O)NC(=O)[C@H](CC(C)C)NC(=O)[C@H](Cc1ccc(O)cc1)NC(=O)[C@H](CCCCN)NC(=O)[C@H](CO)NC(=O)[C@H](Cc1ccc(O)cc1)NC(=O)[C@H](CCC(=O)O)NC(=O)[C@H](CO)NC(=O)[C@@H](NC(=O)[C@H](Cc1ccccc1)NC(=O)[C@@H](NC(=O)CNC(=O)[C@H](CCC(N)=O)NC(=O)[C@@H](N)CO)[C@@H](C)O)[C@@H](C)O)C(C)C)C(=O)N[C@@H](CC(N)=O)C(=O)N[C@H](C(N)=O)[C@@H](C)O`, the Activity in test [1] (filed as antagonist) came to 41%. For the same compound, the result on Glucagon receptor [2] was inactive. Moreover, at Glucagon receptor [3], the result was Active.
On to `CSCC[C@H](NC(=O)[C@H](CC(C)C)NC(=O)[C@H](Cc1c[nH]c2ccccc12)NC(=O)[C@H](CCC(N)=O)NC(=O)[C@@H](NC(=O)[C@H](Cc1ccccc1)NC(=O)[C@H](CC(=O)O)NC(=O)[C@H](CCC(N)=O)NC(=O)[C@H](C)NC(=O)[C@H](CCCNC(=N)N)NC(=O)[C@H](CCCNC(=N)N)NC(=O)[C@H](CO)NC(=O)[C@H](CC(=O)O)NC(=O)[C@H](CC(C)C)NC(=O)[C@H](Cc1ccc(O)cc1)NC(=O)[C@H](CCCCN)NC(=O)[C@H](CO)NC(=O)[C@H](Cc1ccc(O)cc1)NC(=O)[C@H](CCC(=O)O)NC(=O)[C@H](CO)NC(=O)[C@@H](NC(=O)[C@@H](O)Cc1ccccc1)[C@@H](C)O)C(C)C)C(=O)N[C@@H](CC(N)=O)C(=O)N[C@H](C(N)=O)[C@@H](C)O` (HELM PEPTIDE1{[O=C([C@@H](O)Cc1ccccc1)[*:2]].T.S.E.Y.S.K.Y.L.D.S.R.R.A.Q.D.F.V.Q.W.L.M.N.T.[am]}$$$$V2.0), for which, on Glucagon receptor [2] (filed as antagonist), the Activity result was “Dose-Dependent Effect”. The IC50 at Glucagon receptor [4] is 40 nM.
Turning to Ac-FTSEYSKYLDSRRAQDFVQWLMNT-NH2, the IC50 on Glucagon receptor [5] came to 37.1 nM; on Glucagon receptor [4], 130 nM.
Regarding H-FTSEYSKYLDSRRAQDFVQWLMNT-NH2, the Activity entry on Glucagon receptor [2] (filed as antagonist) was “Dose-Dependent Effect”. The IC50 at Glucagon receptor [4] was 79.1 nM.
With H-LTFTSEYSKYLDSRRAQDFVQWLMNT-NH2, the result on Glucagon receptor [2] was inactive. For the same compound, the result on Glucagon receptor [3] was Active.
Turning to H-TSEYSKYLDSRRAQDFVQWLMNT-NH2, in test [1], the Activity worked out at 0.33%. Besides, the IC50 at Glucagon receptor [5] came out at 10000 nM.
